Test results: article PMC4281523 (Pharmaceutical research, 2013)

Assays:
[1] = cited from earlier work
[2] = format: physicochemical
[3] = format: physicochemical; conditions: soybean oil in fed state medium, absence of lipolysis
[4] = Drug release from SEDDS during in vitro digestion, EPR; format: physicochemical

| SMILES | logP [1] | percentage of released drug from SEDDS ([2]; 90 minutes, absence of digestion) [%] | drug released from SEDDS ([2]; over 18 hours, absence of digestive enzyme) [%] | octanol/water partition coefficient (log P) [1] | TB uptake constant into oil, Prel [3] [×10⁻⁶ cm/s] | time of leveling off of drug release [4] [min] |
| --- | --- | --- | --- | --- | --- | --- |
| CC(C)(Sc1cc(C(C)(C)C)c(O)c(C(C)(C)C)c1)Sc1cc(C(C)(C)C)c(O)c(C(C)(C)C)c1 [Probucol] | 8.92 | – | – | – | – | – |
| CC1(C)CC(OC(=O)c2ccccc2)CC(C)(C)N1[O] [TB, TEMPOL benzoate] | – | 9 | 14 | 2.46 | 0.0352 | 50 |
